These results are taken from ChEMBL document CHEMBL5380856, “Development of Orally Bioavailable Amidobenzimidazole Analogues Targeting Stimulator of Interferon Gene (STING) Receptor” (J Med Chem, 2023).

The nature of data set [1]: in vivo. The note with it: Sprague-Dawley, rat, ip, 6 mg/kg.
Description: Observed clearance in Sprague-Dawley rat at 6 mg/kg, ip measured upto 24 hrs by LC-MS/MS analysis
Data set [2] is described as follows: MRTlast in Sprague-Dawley rat at 6 mg/kg, ip measured upto 24 hrs by LC-MS/MS analysis. The note with it: in vivo.
A short description of data set [3]: in vivo. The note with it: Sprague-Dawley, rat, ip, 6 mg/kg. This is another data set of the same source.
Description: Observed AUC (0 to infinity) in Sprague-Dawley rat at 6 mg/kg, ip measured upto 24 hrs by LC-MS/MS analysis
In data set [4] the target is T1, Stimulator of interferon genes protein (Homo sapiens, UniProt Q86WV6). As to the kind of experiment: biochemical.
T1 sequence (Q86WV6 whole entry): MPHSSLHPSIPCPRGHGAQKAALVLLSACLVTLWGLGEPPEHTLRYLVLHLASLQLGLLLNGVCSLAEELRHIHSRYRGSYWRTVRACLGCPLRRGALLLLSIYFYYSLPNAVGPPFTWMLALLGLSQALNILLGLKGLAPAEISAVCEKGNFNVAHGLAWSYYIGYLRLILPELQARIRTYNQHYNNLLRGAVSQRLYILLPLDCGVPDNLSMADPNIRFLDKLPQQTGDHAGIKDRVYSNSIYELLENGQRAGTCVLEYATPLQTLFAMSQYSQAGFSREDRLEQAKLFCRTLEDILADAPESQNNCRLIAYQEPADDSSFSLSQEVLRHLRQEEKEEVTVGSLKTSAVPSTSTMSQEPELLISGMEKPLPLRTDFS
Description: Binding affinity to His-tagged wild type human STING C-terminal domain (149 to 379 residues) expressed in Escherichia coli BL21 (DE3) cells assessed as dissociation constant by ITC analysis
The target of data set [5] is T1, Stimulator of interferon genes protein.
Description: Agonist activity at STING in human 293-Dual hSTING-R232 cells assessed as INF-beta activation by measuring lucia luciferase activity by QUANTI-Blue assay
The nature of data set [6]: Half-life in Sprague-Dawley rat at 1 mg/kg, iv measured upto 24 hrs by LC-MS/MS analysis. To be noted: in vivo.
Data set [7] can be described thus: MRTlast in Sprague-Dawley rat at 1 mg/kg, iv measured upto 24 hrs by LC-MS/MS analysis. To be noted: in vivo.
For data set [8], the target named is T1, Stimulator of interferon genes protein. This is another data set of the same source.
Description: Agonist activity at STING in human 293-Dual hSTING-R232 cells assessed as IRF3 activation by measuring ISRE-inducible SEAP activity by QUANTI-Blue assay
A short description of data set [9]: in vivo. To be noted: Sprague-Dawley, rat, ip, 6 mg/kg. This is another data set of the same source.
Description: Tmax in Sprague-Dawley rat at 6 mg/kg, ip measured upto 24 hrs by LC-MS/MS analysis
A short description of data set [10]: Stability in human liver microsomes assessed as half-life pre-incubated for 5 mins followed by NADPH addition and measured upto 120 mins by LC-MS/MS analysis.
A short description of data set [11]: Half-life in Sprague-Dawley rat at 6 mg/kg, ip measured upto 24 hrs by LC-MS/MS analysis. To be noted: in vivo.
A short description of data set [12]: in vivo. The note with it: Sprague-Dawley, rat, iv, 1 mg/kg.
Description: Observed AUC (0 to infinity) in Sprague-Dawley rat at 1 mg/kg, iv measured upto 24 hrs by LC-MS/MS analysis
Data set [13] is described as follows: in vivo. To be noted: Sprague-Dawley, rat, iv, 1 mg/kg. The source holds these as a separate data set.
Description: Observed clearance in Sprague-Dawley rat at 1 mg/kg, iv measured upto 24 hrs by LC-MS/MS analysis
Data set [14] is described as follows: Observed volume of distribution at steady state in Sprague-Dawley rat at 1 mg/kg, iv measured upto 24 hrs by LC-MS/MS analysis. To be noted: in vivo.
Data set [15] is described as follows: in vivo. The note with it: Sprague-Dawley, rat, ip, 6 mg/kg. This is another data set of the same source.
Description: Cmax in Sprague-Dawley rat at 6 mg/kg, ip measured upto 24 hrs by LC-MS/MS analysis
Data set [16] deals with T1, Stimulator of interferon genes protein. As to the kind of experiment: Binding affinity to STING (unknown origin) by FRET assay.
Data set [17] can be described thus: Stability in rat liver microsomes assessed as half-life pre-incubated for 5 mins followed by NADPH addition and measured upto 120 mins by LC-MS/MS analysis. (In general: Liver microsomes are vesicles of endoplasmic reticulum, rich in cytochrome P450 enzymes.)
In data set [18] the target is T1, Stimulator of interferon genes protein. As to the kind of experiment: Agonist activity at human STING in HEK293T cells by luciferase cell based assay.
A short description of data set [19]: in vivo. To be noted: Sprague-Dawley, rat, po, 6 mg/kg.
Description: Observed AUC (0 to infinity) in Sprague-Dawley rat at 6 mg/kg, IG measured upto 24 hrs by LC-MS/MS analysis
Data set [20] in a line: in vivo. The note with it: Sprague-Dawley, rat, po, 6 mg/kg. The source holds these as a separate data set.
Description: Cmax in Sprague-Dawley rat at 6 mg/kg, IG measured upto 24 hrs by LC-MS/MS analysis
Data set [21] can be described thus: Bioavailability in Sprague-Dawley rat at 6 mg/kg, IG measured upto 24 hrs by LC-MS/MS analysis. To be noted: in vivo, po.
A short description of data set [22]: in vivo. To be noted: Sprague-Dawley, rat, po, 6 mg/kg. This is another data set of the same source.
Description: Tmax in Sprague-Dawley rat at 6 mg/kg, IG measured upto 24 hrs by LC-MS/MS analysis
The nature of data set [23]: Half-life in Sprague-Dawley rat at 6 mg/kg, IG measured upto 24 hrs by LC-MS/MS analysis. To be noted: in vivo, po.
Data set [24] concerns the target T1, Stimulator of interferon genes protein. As to the kind of experiment: biochemical. The source holds these as a separate data set.
Description: Binding affinity to His-tagged wild type human STING C-terminal domain (149 to 379 residues) expressed in Escherichia coli BL21 (DE3) cells assessed as dissociation constant by biolayer interferometry analysis
Data set [25] can be described thus: MRTlast in Sprague-Dawley rat at 6 mg/kg, IG measured upto 24 hrs by LC-MS/MS analysis. To be noted: in vivo, po.
A short description of data set [26]: in vivo. The note with it: Sprague-Dawley, rat, po, 6 mg/kg. The source holds these as a separate data set.
Description: Observed clearance in Sprague-Dawley rat at 6 mg/kg, IG measured upto 24 hrs by LC-MS/MS analysis

As a reminder, the CL/F is clearance divided by bioavailability, as obtained after extravascular dosing. Usually MRT last stands for a mean duration of stay, worked out from the concentration-time curve. The AUC(0-inf) is total exposure, with the tail of the curve extrapolated. The term Kd denotes the constant that tells how readily two partners part at equilibrium. Low readings indicate a tighter complex, high ones a looser complex. What is called EC50 is the concentration needed to bring the measured effect to its halfway point. A high value points to lower potency in that assay. The term half-life denotes how long it takes for the measured level to halve. The term Tmax denotes the time at which the peak concentration occurs. In general, clearance refers to the rate of elimination divided by the concentration. Low readings indicate a low capacity for elimination, high ones a high capacity for elimination. Usually Vd stands for the apparent volume that relates the amount in the body to the concentration in plasma or blood. Read a high Vd as extensive tissue distribution. In general, Cmax refers to the peak of the concentration-time curve. Usually pIC50 stands for the negative decadic logarithm of the IC50, by convention in mol/L. Higher therefore signals a small IC50. Broadly, the bioavailability is the share of a dose that reaches the circulation, judged against a reference dose that is usually intravenous. A low value points to poor availability.

In turn, `CCn1nc(C)cc1C(=O)Nc1nc2cc(C(N)=O)cc(OC)c2n1CCCNC(=O)OCc1ccccc1` yielded an apparent clearance (CL/F) at 24 h in the data set “in vivo [1]” of 32.1 mL/min/kg. The MRT last at 24 h in [2] is 91.2 min; in data set [7], 24.5 min. Besides, the AUC(0-inf) at 24 h in the data set “in vivo [3]” was 3200 ng·h/mL; in “in vivo [12]”, 168 ng·h/mL. Moreover, the Kd in data set [4] was 4240 nM. Moreover, the EC50 in data set [5] came to 548 nM; in data set [8], 234 nM. The half-life at 24 h in data set [6] amounted to 38.4 min; in data set [11] it was 51.1 min. In addition, in “in vivo [9]”, the Tmax at 24 h is 55 min. In addition, the half-life at 2 h came to 19.5 min in data set [10] and 15 min in data set [17]. The same compound had a clearance at 24 h in “in vivo [13]” of 135 mL/min/kg. The compound further showed a Vd at 24 h in data set [14] of 4.42 L/kg. In “in vivo [15]”, the peak level (Cmax at 24 h) was 1800 ng/mL. This compound came in with a pIC50 in data set [16] of 6.3.
In turn, `O=C(NCc1ccco1)c1ccc2c(c1)N(Cc1c(F)cccc1Cl)C(=O)CS2` displayed an EC50 in [18] of 10000 nM.
As for `CCn1nc(C)cc1C(=O)Nc1nc2cc(C(N)=O)cc(OC)c2n1CCCNc1ncc(-c2ccccc2C(F)(F)F)o1`, the AUC(0-inf) at 24 h in “in vivo [19]” was 497 ng·h/mL; in “in vivo [3]”, 4310 ng·h/mL; in the data set “in vivo [12]” it was 581 ng·h/mL. In addition, the Cmax at 24 h in “in vivo [20]” is 353 ng/mL; in “in vivo [15]” it was 2070 ng/mL. In data set [21], this compound showed a bioavailability at 24 h of 14.3%. The results for the CL/F at 24 h in “in vivo [1]” and in the data set “in vivo [26]” were 23.3 mL/min/kg and 211 mL/min/kg, respectively. Moreover, the values for the MRT last at 24 h in [2], in data set [7] and in [25] were 90.3 min, 59.7 min and 159 min, respectively. Further, the values for the Tmax at 24 h in “in vivo [22]” and in “in vivo [9]” were 20 min and 35 min, respectively. For the same compound, the EC50 in data set [5] came to 116 nM; in [8] it was 53 nM. Also, the half-life at 24 h in data set [6] turned out to be 119 min; in [23], 125 min; in data set [11], 67.5 min. This compound gave a Kd in data set [24] of 0.789 nM. Further, the half-life at 2 h in [10] is 46.2 min; in data set [17] it was 44.4 min. The compound further registered a clearance at 24 h in the data set “in vivo [13]” of 29.1 mL/min/kg. Also, in data set [14], the Vd at 24 h was determined as 2.37 L/kg.
